From article PMC10290117, “Molecular mechanism of phosphopeptide neoantigen immunogenicity” (Nature Communications, 2023)
pKd: −log10 of the molar value. Square brackets hold non-standard residues; d marks the D form. Ends that are not written are not given here. Peptide text beside a SMILES is read from it. Abu(4-PO3H2) = N[C@@H](CCP(=O)(O)O)C(=O)O; pS = N[C@@H](COP(=O)(O)O)C(=O)O

biological target: HLA-B*0702 (Homo sapiens, UniProt P01889); test: Alpha assay, peptide binding to HLA-B*0702; settings: Alpha assay (luminescent oxygen channeling), W6/32 antibody and biotinylated recombinant HLA class I; non-linear fit
Description: (§1) Peptides were dissolved in dimethyl sulfoxide (DMSO) at concentrations of 2–20 mg/mL, aliquoted and stored at −80 °C. Peptide-pulsing experiments were performed by pre-incubating T2 cells with 25 μg peptide per 1 × 10^6 cells in PBS for 2 h at 37 °C and 5% CO2, washed three times to remove unbound peptides and used for further downstream analysis. Peptide-pulsed T2 cells were incubated with effector cells in a 2:1 ratio overnight in SF-IMDM at 37 °C and 10% CO2, washed twice and stained with anti-mouse TCR-® chain clone H57-597 (BD Pharmingen #560656, 1:500) for 30 min at RT. Cells were washed twice before FACS-analysis using a BD FACS Canto II with System software v2.0. Data analysis was performed using FlowJo V10 Software. Binding affinity between each peptide and HLA-B*0702 was determined using an Alpha assay. It is a homogenous, proximity-based assay for detection of peptides binding to HLA class I molecules using a conformation-dependent anti-HLA class I antibody, W6/32, as one tag and a biotinylated recombinant HLA class I molecule as the other tag, and a proximity-based signal was generated through the luminescent oxygen channeling immunoassay technology (PerkinElmer) as described.

CSCC[C@H](NC(=O)[C@H](CO)NC(=O)[C@H](Cc1c[nH]cn1)NC(=O)[C@H](CO)NC(=O)[C@@H]1CCCN1C(=O)[C@H](CCP(=O)(O)O)NC(=O)[C@H](CCCNC(=N)N)NC(=O)[C@@H]1CCCN1C(=O)[C@@H](N)CCC(=O)O)C(=O)O [E7P-MLL747–755] (H-EPR[Abu(4-PO3H2)]PSHSM-OH) and CSCC[C@H](NC(=O)[C@H](CO)NC(=O)[C@H](Cc1c[nH]cn1)NC(=O)[C@H](CO)NC(=O)[C@@H]1CCCN1C(=O)[C@H](COS(=O)(=O)O)NC(=O)[C@H](CCCNC(=N)N)NC(=O)[C@@H]1CCCN1C(=O)[C@@H](N)CCC(=O)O)C(=O)O [OSE-MLL747–755] are within 0.2 log units of each other in pKd: 7.47 for the first, 7.58 for the second.

First: CC(C)C[C@H](NC(=O)[C@H](CCC(N)=O)NC(=O)[C@H](Cc1c[nH]cn1)NC(=O)[C@H](C)NC(=O)[C@@H]1CCCN1C(=O)[C@H](COP(=O)(O)O)NC(=O)[C@H](C)NC(=O)[C@@H]1CCCN1C(=O)[C@@H](N)CC(C)C)C(=O)O [pDOT1L998–1006] (H-LPA[pS]PAHQL-OH)
Second: CSCC[C@H](NC(=O)[C@H](CO)NC(=O)[C@H](Cc1c[nH]cn1)NC(=O)[C@H](CO)NC(=O)[C@@H]1CCCN1C(=O)[C@H](COP(=O)(O)O)NC(=O)[C@H](CCCNC(=N)N)NC(=O)[C@@H]1CCCN1C(=O)[C@@H](N)CCC(=O)O)C(=O)O [pMLL747–755] (H-EPR[pS]PSHSM-OH)
The pKd of the first is 0.74 log units lower: 6.51 for the first, 7.25 for the second.

Going from EPRSPSHSM [MLL747–755] to LPASPAHQL [DOT1L998–1006], the pKd falls from 7.57 to 7.27 (0.30 log units). The first binds more tightly here.

system: TCR27-AKD10R3 cells; test: X-scan (peptide scan), EGFP reporter effector cells; type: cell-based, murine; settings: Fig. 1c source data, HLA B*07, T2 cells pulsed with 25 μg peptide per 1 × 10^6 cells, 2 h, 37 °C, effector cells 2:1 overnight, mean value of triplicate
Description: Tap-deficient T2 (174x CEM.T2) HLA-B*0702+ cells were received from Dr. Victor Engelhard. These and the commercially purchased Tap-deficient T2 (174 x CEM.T2) cells (ATCC CRL 1991) were maintained in RPMI 1640 (BioConcept) supplemented with 10% fetal calf serum (FCS, HyClone), 2mM L-glutamine and 1% Penicillin/Streptomycin at 37 °C and 5% CO2. The EGFP reporter cell line was based on a murine TCR negative thymoma cell line derived from strain BW5417 (ATCC®TIB-47TM) and was stably transduced with (a) TCR27 in which the human constant regions were replaced with those of mouse, (b) a chimeric mouse/human CD8, and (c) an EGFP reporter construct linked to a minimal IL-2 promoter comprising three NFAT-binding sites (3xNFAT)[44]. The transduced cells were termed TCR27-AKD10R3 cells and will be called the effector cells. Mouse cell lines were cultured in SF-IMDM (BioConcept) supplemented with 3% FCS, 1% Penicillin/Streptomycin, and 50 μM beta-mercaptoethanol at 37 °C and 10% CO2.
as §1
To identify the off-target peptides we have utilized an approach that was developed previously. In brief, we investigated which amino acids at each position in pMLL747–755 enable TCR interaction by sequentially replacing every amino acid position outside of the anchor positions 2 and 9 with all 19 alternative amino acids, resulting in 134 peptides (133 altered peptides plus original epitope). Each peptide was individually evaluated using cell-based in vitro cytotoxicity assay. To represent the TCR recognition kernel, we have defined Position Weight Matrices (PWMs) for each assay by assigning normalized measurements to each of the 20 amino acids in each position. To predict potential off-target peptides, we applied an algorithm projecting the PWM-defined kernel into the human proteome, scoring TCR27 recognition for the predicted HLA-B^*0702 binding 9-mer peptides. Of the 11 peptides with highest predicted cross-reactivity scores, we confirmed that only 2, […] and pDOT1L998–1006, strongly activated the TCR27-expressing effector T cells.

Going from “EPRsTSHSM [single-residue substitution of pMLL747–755, Pos 5]” to “EPRsVSHSM [single-residue substitution of pMLL747–755, Pos 5]”, the “Percentage GFP positive from TCR+ cells” value rises from 0.78% to 0.96%.

First: EPRsWSHSM [single-residue substitution of pMLL747–755, Pos 5]
Second: EPRsYSHSM [single-residue substitution of pMLL747–755, Pos 5]
The “Percentage GFP positive from TCR+ cells” value of the first is higher: 1.08% for the first, 1% for the second.

Going from “EPSsPSHSM [single-residue substitution of pMLL747–755, Pos 3]” to “EPTsPSHSM [single-residue substitution of pMLL747–755, Pos 3]”, the “Percentage GFP positive from TCR+ cells” value falls from 2.7% to 1.16%.

Going from “EPVsPSHSM [single-residue substitution of pMLL747–755, Pos 3]” to “EPWsPSHSM [single-residue substitution of pMLL747–755, Pos 3]”, the “Percentage GFP positive from TCR+ cells” value falls from 2.11% to 0.92%.

Compared with “EPYsPSHSM [single-residue substitution of pMLL747–755, Pos 3]”, “FPRsPSHSM [single-residue substitution of pMLL747–755, Pos 1]” is higher in “Percentage GFP positive from TCR+ cells” value: 1.08% for the first, 1.43% for the second.

Going from “GPRsPSHSM [single-residue substitution of pMLL747–755, Pos 1]” to “HPRsPSHSM [single-residue substitution of pMLL747–755, Pos 1]”, the “Percentage GFP positive from TCR+ cells” value falls from 1.59% to 1.23%.

Going from “IPRsPSHSM [single-residue substitution of pMLL747–755, Pos 1]” to “KPRsPSHSM [single-residue substitution of pMLL747–755, Pos 1]”, the “Percentage GFP positive from TCR+ cells” value falls from 1.7% to 1.37%.

First: LPRsPSHSM [single-residue substitution of pMLL747–755, Pos 1]
Second: MPRsPSHSM [single-residue substitution of pMLL747–755, Pos 1]
The “Percentage GFP positive from TCR+ cells” value of the first is higher: 10.7% for the first, 1.37% for the second.

First: NPRsPSHSM [single-residue substitution of pMLL747–755, Pos 1]
Second: PPRsPSHSM [single-residue substitution of pMLL747–755, Pos 1]
The “Percentage GFP positive from TCR+ cells” value of the first is higher: 1.27% for the first, 1.13% for the second.

First: QPRsPSHSM [single-residue substitution of pMLL747–755, Pos 1]
Second: RPRsPSHSM [single-residue substitution of pMLL747–755, Pos 1]
The “Percentage GFP positive from TCR+ cells” value of the first is higher: 2.64% for the first, 1.11% for the second.

Compared with “SPRsPSHSM [single-residue substitution of pMLL747–755, Pos 1]”, “TPRsPSHSM [single-residue substitution of pMLL747–755, Pos 1]” is higher in “Percentage GFP positive from TCR+ cells” value: 1.08% for the first, 1.28% for the second.

Compared with “VPRsPSHSM [single-residue substitution of pMLL747–755, Pos 1]”, “WPRsPSHSM [single-residue substitution of pMLL747–755, Pos 1]” is lower in “Percentage GFP positive from TCR+ cells” value: 1.39% for the first, 1.18% for the second.

For “YPRsPSHSM [single-residue substitution of pMLL747–755, Pos 1]”, the “Percentage GFP positive from TCR+ cells” value was 1.32%.

same assay, conditions: Fig. 1c source data, second set of control lines at the end of the sheet (no Pep code)

For “RVR[pS]PTRSL [unrelated phosphopeptide control of the X-scan, reference compound]”, the “Percentage GFP positive from TCR+ cells” value was 0.74%.
